According to patent US6448203B1, “Substituted aryluracils” (Bayer Aktiengesellschaft, priority 1997, dated 2002):

Experiments:
[1] = test system: Amaranthus; experiment: Post-emergence test; assay type: in vivo; conditions: application rate of 250 glha, after three weeks, 0%=no effect, 100%=total destruction
Procedure: (§1) Post-Emergence Test Solvent: 5 parts by weight of acetone Emulsifier: 1 part by weight of alkylaryl polyglycol ether To produce a suitable preparation of active compound, 1 part by weight of active compound is mixed with the stated amount of solvent, the stated amount of emulsifier is added and the concentrate is diluted with water to the desired concentration. Test plants which have a height of 5-15 cm are sprayed with the preparation of active compound in such a way that the particular amounts of active compound desired are applied per unit area. The concentration of the spray liquor is chosen such that the particular amounts of active compound desired are applied in […] of water/ha. After three weeks, the degree of damage to the plants is rated in % damage in comparison to the development of the untreated control. The figures denote: 0%=no effect (like untreated control) 100%=total destruction

[2] = test system: Abutilon; experiment: Post-emergence test; assay type: in vivo; conditions: application rate of 250 glha, after three weeks, 0%=no effect, 100%=total destruction
Procedure: as §1

[3] = test system: Sinapis; experiment: Post-emergence test; assay type: in vivo; conditions: application rate of 250 glha, after three weeks, 0%=no effect, 100%=total destruction
Procedure: as §1

[4] = test system: Setaria; experiment: Post-emergence test; assay type: in vivo; conditions: application rate of 250 glha, after three weeks, 0%=no effect, 100%=total destruction
Procedure: as §1

[5] = test system: Amaranthus; experiment: Pre-emergence test; assay type: in vivo; conditions: application rate of 250 g/ha, after three weeks, 0%=no effect, 100%=total destruction
Procedure: (§2) Pre-Emergence Test Solvent: 5 parts by weight of acetone Emulsifier: 1 part by weight of alkylaryl polyglycol ether To produce a suitable preparation of active compound, 1 part by weight of active compound is mixed with the stated amount of solvent, the stated amount of emulsifier is added and the concentrate is diluted with water to the desired concentration. Seeds of the test plants are sown in normal soil. After about 24 hours, the soil is sprayed with the preparation of active compound in such a way as to apply the particular amounts of active compound desired per unit area. The concentration of the spray liquor is chosen such that the particular amounts of active compound desired are applied in 1000 l of water/ha. After three weeks, the degree of damage to the plants is rated in % damage in comparison to the development of the untreated control. The figures denote: 0%=no effect (like untreated control) 100%=total destruction

[6] = test system: Abutilon; experiment: Pre-emergence test; assay type: in vivo; conditions: application rate of 250 g/ha, after three weeks, 0%=no effect, 100%=total destruction
Procedure: as §2

[7] = test system: Sinapis; experiment: Pre-emergence test; assay type: in vivo; conditions: application rate of 250 g/ha, after three weeks, 0%=no effect, 100%=total destruction
Procedure: as §2

[8] = test system: Setaria; experiment: Pre-emergence test; assay type: in vivo; conditions: application rate of 250 g/ha, after three weeks, 0%=no effect, 100%=total destruction
Procedure: as §2

[9] = test system: mustard beetle larvae (Phaedon cochleariae); experiment: Phaedon larvae test; assay type: in vivo; conditions: active compound concentration of 0.1%; after 7 days; dipped cabbage leaves (Brassica oleracea)
Procedure: Phaedon Larvae Test Solvent: 7 parts by weight of dimethylformamide Emulsifier: 1 part by weight of alkylaryl polyglycol ether To produce a suitable preparation of active compound, 1 part by weight of active compound is mixed with the stated amount of solvent and the stated amount of emulsifier, and the concentrate is diluted with water to the desired concentration. Cabbage leaves (Brassica oleracea) are treated by being dipped into the preparation of active compound of the desired concentration and are populated with mustard beetle larvae (Phaedon cochleariae) while the leaves are still moist. After the desired period of time, the kill in % is determined. 100% means that all beetle larvae have been killed; 0% means that none of the beetle larvae have been killed.

Row | Compound | melting point | degree of damage to the plants (% damage), Amaranthus [1] | degree of damage to the plants (% damage), Abutilon [2] | degree of damage to the plants (% damage), Sinapis [3] | degree of damage to the plants (% damage), Setaria [4] | degree of damage to the plants (% damage), Amaranthus [5] | degree of damage to the plants (% damage), Abutilon [6] | degree of damage to the plants (% damage), Sinapis [7] | degree of damage to the plants (% damage), Setaria [8] | kill in % [9]
1 | Nn1c(C(F)(F)F)cc(=O)n(-c2ccc(OCc3ccc(Cl)nc3)cc2F)c1=O [Preparation Example 3, 3-amino-1-[2-fluoro4-(2-chloro-pyridin-5-yl-methoxy)-phenyl]4-trifluoromethyl-3,6-dihydro-2,6-dioxo-1 (2H)-pyrimidine] | 171 °C |  |  |  |  |  |  |  |  | 
2 | Cn1c(C(F)(F)F)cc(=O)n(-c2ccc(OCc3ccc(Cl)nc3)cc2F)c1=O [Preparation Example 2, 1-[2-fluoro4-(2-chloro-pyridin-5-yl-methoxy)-phenyl]-3-methyl4-trifluoromethyl-3,6-dihydro-2,6-dioxo-1 (2H)-pyrimidine] | 164 °C | 100% | 100% | 100% | 100% | 100% | 100% | 100% | 100% | 
3 | O=c1cc(C(F)(F)F)[nH]c(=O)n1-c1ccc(OCc2ccc(Cl)nc2)cc1F [Example 1, 1-[2-fluoro-4-(2-chloro-pyridin-5-y1-methoxy)-phenyl]-4-trifluoromethyl-3,6-dihydro-2,6-dioxo-1(2H)-pyrimidine] | 212 °C |  |  |  |  |  |  |  |  | 
4 | Nn1c(C(F)(F)F)cc(=O)n(-c2ccc(OCc3ccc(Cl)nc3)cc2F)c1=O [compound 3] |  | 100% | 100% | 100% | 100% | 100% | 100% | 100% | 100% | 100%
